{"source": "paper PMC8602723", "about": "“Comparative assessment of antimicrobial, antiradical and cytotoxic activities of cannabidiol and its propyl analogue cannabidivarin” (Scientific Reports, 2021)", "key": {"Caco-2 cells": {"test_system": "Caco-2 cells", "test": "MTT assay (mitochondrial metabolism)", "format": "cell-based, human", "details": "for LOAEC MTT assay: Caco-2, same value after each exposure time (24, 48, 72 h); for pIC50: Homo sapiens, read-out: IC50 MTT assay", "excerpt": "(§1) MTT assay is the most commonly used method for high-throughput identification of the antiproliferative effects of compounds on cultured cells and is indirectly correlated with mitochondria-dependent apoptosis progression[59]–[61]. The production of reducing equivalents such as NADH in metabolically active cells is an indicator of “cell redox activity”, indirectly reflecting the number of viable cells[60],[61] and the mitochondrial metabolic rate in cells[62],[63].\n(§2) A549, Caco-2, HepG2 and TelCOFS02MA cells (1 × 10^4 cells/well), and MDA-MB-231 cells (0.5 × 10^4 cells/well) were seeded in 100 µL of fresh medium into 96-well plates (TC-Plate 96 wells, Sarstedt, Verona, Italy) in quadruplicate for 24 h at 37 °C in a humidified atmosphere of 95% air plus 5% CO2. Then, the medium was removed and replaced with 200 µL of media with different concentrations of CBD (5–80 µM, dilution factor [DF] equal to 2) and CBDV (5.5–88 µM, DF = 2) chosen on the basis of range-finding tests (0.5, 5, and 50 mg/L). We chose 1.56–25 mg/L to be tested and, to make easier the comparison between the two cannabinoids activities, the concentrations were reported in [μM]. In all experiments, negative controls (wells containing cells exposed only to the medium) and solvent controls (wells containing cells exposed to 2.5% methanol) were included. The plates were incubated at 37 °C for three exposure times: 24, 48 and 72 h (different plates were prepared for each specific time point). Then, MTT solution (5 mg/mL) was added to each well, and the plates were re-incubated for 4 h at 37 °C. The culture medium was removed, and 2-propanol was used to dissolve formazan crystals. The absorbance of formazan was measured spectrophotometrically at 590 nm using an automated microplate reader (Synergy H1, Biotek, Winooski, USA). The results are reported as the percentages of cells with inhibited proliferation, as determined by the link between the inhibition of mitochondrial metabolic activity and proliferation. The results were calculated with the following formula:1 IC%=1-OD590sample/OD590negativecontrol·100\n(§3) Furthermore, IC50 values (concentrations of the sample used to obtain an inhibition of 50% of cell growth/metabolic activity) were calculated.\n(§4) All results from five independent experiments are expressed as the IC50 or EC50 as determined by analysis with Prism 5 software (GraphPad Inc., San Diego, CA, USA) and nonlinear regression (log agonist vs. normalized response-variable slope) with a 95% confidence range. Lowest observed adverse effect concentrations (LOAECs) were calculated by one-way ANOVA and Dunnett’s comparison test. Differences compared to the controls were considered significant as follows: *p < 0.05, **p < 0.001 and ***p < 0.0001."}, "MDA-MB-231 cells [1]": {"test_system": "MDA-MB-231 cells", "test": "MTT assay (mitochondrial metabolism)", "format": "cell-based, human", "details": "for pIC50: Homo sapiens, read-out: IC50 MTT assay", "excerpt": "as §1, §2, §3, §4"}, "TelCOFS02MA cells": {"test_system": "TelCOFS02MA cells", "test": "MTT assay (mitochondrial metabolism)", "format": "cell-based, human", "details": "for pIC50: Homo sapiens, read-out: IC50 MTT assay", "excerpt": "as §1, §2, §3, §4"}, "MDA-MB-231 cells [2]": {"test_system": "MDA-MB-231 cells", "test": "BrdU-ELISA (DNA synthesis inhibition)", "format": "cell-based", "details": "Homo sapiens, read-out: IC50 BrdU-ELISA", "protocol": "BrdU-ELISA was performed according to the protocol described by Lehmann and collaborators, and the results were used to evaluate the inhibition of DNA synthesis. A total of 1 × 10^4 cells/well were seeded in 100 µL of fresh medium into 96-well plates in triplicate at 37 °C in a humidified atmosphere of 95% air plus 5% CO2 for 24 h. Then, the medium was removed and replaced with 200 µL of medium with the same concentrations of CBD and CBDV that had been used in the previous test. In all experiments, blanks (wells with medium and without cells), negative controls (with only medium) and solvent controls (2.5% methanol) were included. The plates were incubated at 37 °C for 72 h. Then, 20 µL of 100 µM BrdU labelling solution was added to each well and incubated for 2 h at 37 °C. After removing the labelling solution, 200 µl of DNA fixing/denaturing solution was added to each well and incubated for 30 min at room temperature. After its discharge, 100 µL of the anti-BrdU-POD antibody solution [0.075 U/mL] was added to each well and incubated for 90 min at room temperature. After several washing steps with 1X PBS (200–300 µL/well), 100 µl of tetramethylbenzidine (TMB) was added to each well and incubated for 20–30 min (sufficient time for the colour change). The incorporation of BrdU into DNA was quantified spectrophotometrically at 370 nm. […] The mean absorbance of the control cells represented 100% cell proliferation, and the mean absorbance of the treated cells was related to the control values to determine cell sensitivity. Inhibition (%) of DNA synthesis/cell viability was determined as follows:2 IC%=1-OD370sample/OD370negativecontrol·100\nIC50 values (representing the median concentration at which DNA synthesis and cell viability were reduced by 50%) were calculated.\nas §4"}, "[3]": {"test_system": "Escherichia coli (ATCC 13762)", "test": "Microbial susceptibility test (growth inhibition)", "format": "cell-based", "details": "read-out: IC50 bacterial growth inhibition", "protocol": "(§5) Escherichia coli (ATCC 13762) and S. aureus (ATCC 6538) were cultured overnight in tryptic soy broth and soybean-casein digestive medium (TSB, Oxoid, Milano, Italy) at 37 °C[70]. Subsequently, using 96-well plates (Sarstedt, Italy), 100 µL of TSB, 100 µL of CBD (5–160 µM, DF = 2) or CBDV (5.46–175 µM, DF = 2) and 100 µL of the bacterial culture corresponding to 1 × 10^4 CFU were added sequentially to each well. CBD and CBDV final concentrations in wells equal to 1.66–53 and 1.82–58.19 µM, respectively, were chosen on the basis of range-finding tests. TSB alone was used as the blank, physiologic solution (0.9% NaCl) was used as the negative control, methanol 5% v/v (final percentage in wells equal to 1.6% v/v) was used as the solvent control, and streptomycin at 60 µM (final concentration in the well equal to 20 µM) was used as the positive control. Experiments were conducted in sextuplicate. The plates were covered with sterile film to prevent evaporation and incubated at 37 °C. After 24, 48 and 72 h, the optical density of each well was recorded at 620 nm using a microplate reader. The bacterial growth inhibition percentage (IC%) was determined as follows:7 IC%=1-OD620testsample-OD620blank/OD620negativecontrol-OD620blank·100\nas §4"}, "S. aureus (ATCC 6538)": {"test_system": "S. aureus (ATCC 6538)", "test": "Microbial susceptibility test (growth inhibition)", "format": "cell-based", "details": "Staphylococcus aureus, read-out: IC50 bacterial growth inhibition", "protocol": "as §5, §4"}, "[4]": {"details": "MDA-MB-231, 72 h exposure, 95% confidence interval in brackets"}}, "note": "pIC50: −log10 of the molar value. Where two headings read alike, the source gives them in different places."}
{"smiles": "C=C(C)[C@@H]1CCC(C)=C[C@H]1c1c(O)cc(CCCCC)cc1O", "note": "[CBD, Cannabidiol]", "values": [{"measurement": "LOAEC MTT assay", "setting": "Caco-2 cells", "value": 20, "unit": "µM"}, {"measurement": "pIC50", "setting": "Caco-2 cells; Caco-2, 72 h exposure, 95% confidence interval in brackets", "value": 4.45}, {"measurement": "pIC50", "setting": "MDA-MB-231 cells [1]; [4]", "value": 4.59}, {"measurement": "LOAEC MTT assay", "setting": "MDA-MB-231 cells [1]; MDA-MB-231, 24 h", "value": 20, "unit": "µM"}, {"measurement": "LOAEC MTT assay", "setting": "MDA-MB-231 cells [1]; MDA-MB-231, 48 h", "value": 10, "unit": "µM"}, {"measurement": "pIC50", "setting": "TelCOFS02MA cells; TelCOFS02MA, 72 h exposure, 95% confidence interval in brackets", "value": 4.50}, {"measurement": "LOAEC MTT assay", "setting": "TelCOFS02MA cells; TelCOFS02MA, same value for the entire treatment period (24, 48, 72 h)", "value": 20, "unit": "µM"}, {"measurement": "pIC50", "setting": "MDA-MB-231 cells [2]; [4]", "value": 4.42}, {"measurement": "pIC50", "setting": "[3]; ATCC13762, E. coli, 72 h of incubation, 95% confidence range in brackets", "value": 4.54}, {"measurement": "pIC50", "setting": "S. aureus (ATCC 6538); ATCC6538, S. aureus, 24 h of exposure, 95% confidence range in brackets", "value": 4.99}, {"measurement": "pIC50", "setting": "S. aureus (ATCC 6538); ATCC6538, S. aureus, 48 h of exposure, 95% confidence range in brackets", "value": 5.31}, {"measurement": "pIC50", "setting": "S. aureus (ATCC 6538); ATCC6538, S. aureus, 72 h of exposure, 95% confidence range in brackets", "value": 5.74}]}
{"smiles": "C=C(C)[C@@H]1CCC(C)=C[C@H]1c1c(O)cc(CCC)cc1O", "note": "[CBDV, cannabidivarin]", "values": [{"measurement": "LOAEC MTT assay", "setting": "Caco-2 cells", "value": 44, "unit": "µM"}, {"measurement": "pIC50", "setting": "Caco-2 cells; Caco-2, 72 h", "value": 4.34}, {"measurement": "pIC50", "setting": "MDA-MB-231 cells [1]; MDA-MB-231, 72 h", "value": 4.42}, {"measurement": "LOAEC MTT assay", "setting": "MDA-MB-231 cells [1]; MDA-MB-231, 24 h", "value": 44, "unit": "µM"}, {"measurement": "LOAEC MTT assay", "setting": "MDA-MB-231 cells [1]; MDA-MB-231, 48 h", "value": 22, "unit": "µM"}, {"measurement": "pIC50", "setting": "TelCOFS02MA cells; 72 h", "value": 4.37}, {"measurement": "LOAEC MTT assay", "setting": "TelCOFS02MA cells; TelCOFS02MA, 24 h", "value": 88, "unit": "µM"}, {"measurement": "LOAEC MTT assay", "setting": "TelCOFS02MA cells; TelCOFS02MA, 48 h", "value": 44, "unit": "µM"}, {"measurement": "LOAEC MTT assay", "setting": "TelCOFS02MA cells; TelCOFS02MA, 72 h", "value": 11, "unit": "µM"}, {"measurement": "pIC50", "setting": "MDA-MB-231 cells [2]; MDA-MB-231, 72 h", "value": 4.33}, {"measurement": "pIC50", "setting": "[3]; ATCC13762, 72 h", "value": 4.45}, {"measurement": "pIC50", "setting": "S. aureus (ATCC 6538); ATCC6538, 72 h", "value": 4.51}]}
